From article PMC10454678, “Synthesis of hydroxy benzoin/benzil analogs and investigation of their antioxidant, antimicrobial, enzyme inhibition, and cytotoxic activities” (Turkish Journal of Chemistry, 2021)
In brackets after ≈: the same amount, converted by molar mass. Several values for one entry are separate records, joined by “and”; a condition that tells them apart may be missing. Equal values may be shown once. Read-outs that look alike come from different tables or passages of the source.

Assays:
[1] = test system: human cervical cancer cell line (HeLa); assay: MTT cell proliferation, HeLa; settings: for GI50 / IC50: Homo sapiens, HeLa, 24 h; for GI50: read-out: GI50 HeLa cell line; for IC50: read-out: IC50 HeLa cell line
[2] = test system: human retinal normal cell line (RPE); assay: MTT cell proliferation, RPE; settings: for GI50 / IC50: Homo sapiens, 24 h; for GI50: read-out: GI50 RPE normal cell line; for IC50: read-out: IC50 RPE normal cell line
[3] = Copper ions reducing activity (CUPRAC); settings: Trolox equivalents; 30 min dark, room temperature, 450 nm
[4] = DPPH radical scavenging activity; settings: 0.1 mM DPPH, 50 min dark, 517 nm
[5] = test system: Candida albicans ATCC60193; assay: MIC, microdilution, C. albicans; format: cell-based; settings: Candida albicans, read-out: MIC Ca
acetylcholinesterase = acetylcholinesterase (Homo sapiens, UniProt P22303); assay: biochemical; settings: Tris-HCl pH 8.0, 25 °C, 405 nm; read-out: AChE IC50 (converted)
[6] = Ferric reducing antioxidant power (FRAP) assay; settings: Trolox equivalents; compounds 2 mg/mL, 30 °C 30 min, 595 nm
[7] = test system: Mycobacterium smegmatis ATCC607; assay: MIC, microdilution, M. smegmatis; format: cell-based; settings: Tub., BHI broth, 36 °C; for MIC: Mycolicibacterium smegmatis, ATCC607, 72 h, read-out: MIC Ms; for MIC Ms: 72 h
[8] = test system: Yersinia pseudotuberculosis ATCC911; assay: microbe, parasite or virus in culture; format: cell-based; settings: Yersinia pseudotuberculosis, ATCC911, read-out: MIC Yp
butyrylcholinesterase = butyrylcholinesterase (Homo sapiens, UniProt P06276); assay: biochemical; settings: Tris-HCl pH 8.0, 25 °C, 405 nm; read-out: BChE IC50 (converted)
[9] = test system: Escherichia coli ATCC 25922; assay: MIC, microdilution, E. coli; format: cell-based; settings: Escherichia coli
[10] = test system: Pseudomonas aeruginosa ATCC27853; assay: MIC, microdilution, P. aeruginosa; format: cell-based; settings: Pseudomonas aeruginosa
α-glucosidase = assay: α-Glucosidase inhibition; format: biochemical; settings: PNPG, pH 6.8, 37 °C, 400 nm
Experimental: It was incubated at 37 °C for 15 min. Similarly, an enzyme-free blank was prepared. The reaction was stopped when sodium carbonate (50 μL, 0.2 M) was added.

Bacillus cereus Roma709 = assay: MIC, microdilution, B. cereus; format: cell-based; settings: Bacillus cereus
[11] = test system: Streptococcus mutans RSKK07038; assay: MIC, microdilution, S. mutans; format: cell-based; settings: Streptococcus mutans, read-out: MIC Sm
[12] = test system: Staphylococcus aureus ATCC25923; assay: MIC, microdilution, S. aureus; format: cell-based; settings: Staphylococcus aureus
[13] = test system: Enterococcus faecalis ATCC29212; assay: MIC, microdilution, E. faecalis; format: cell-based; settings: Enterococcus faecalis
[14] = test system: Bacillus subtilis ATCC1266; assay: MIC, microdilution, B. subtilis; format: cell-based; settings: Gram (+) nonpathogenic spore forming
[15] = test system: Paenibacillus larvae DSM7030; assay: MIC, microdilution, P. larvae; format: cell-based; settings: Gram (+) nonpathogenic spore forming
[16] = ATCC60193, fungus, YEPD broth, 48 h, 36 °C
[17] = ATCC27853, Gram (-), Mueller-Hinton broth, 18-24 h, 36 °C, read-out: MIC Pa
[18] = RSKK07038, Gram (+), BHI broth, 72 h, 36 °C
[19] = ATCC25922, Gram (-), Mueller-Hinton broth, 18-24 h, 36 °C, read-out: MIC Ec
[20] = ATCC29212, Gram (+), Mueller-Hinton broth, 18-24 h, 36 °C, read-out: MIC Ef
[21] = ROMA709, Gram (+), Mueller-Hinton broth, 18-24 h, 36 °C, read-out: MIC Bc
[22] = ATCC25923, Gram (+), Mueller-Hinton broth, 18-24 h, 36 °C, read-out: MIC Sa

Chain of butyrylcholinesterase (P06276 29-602): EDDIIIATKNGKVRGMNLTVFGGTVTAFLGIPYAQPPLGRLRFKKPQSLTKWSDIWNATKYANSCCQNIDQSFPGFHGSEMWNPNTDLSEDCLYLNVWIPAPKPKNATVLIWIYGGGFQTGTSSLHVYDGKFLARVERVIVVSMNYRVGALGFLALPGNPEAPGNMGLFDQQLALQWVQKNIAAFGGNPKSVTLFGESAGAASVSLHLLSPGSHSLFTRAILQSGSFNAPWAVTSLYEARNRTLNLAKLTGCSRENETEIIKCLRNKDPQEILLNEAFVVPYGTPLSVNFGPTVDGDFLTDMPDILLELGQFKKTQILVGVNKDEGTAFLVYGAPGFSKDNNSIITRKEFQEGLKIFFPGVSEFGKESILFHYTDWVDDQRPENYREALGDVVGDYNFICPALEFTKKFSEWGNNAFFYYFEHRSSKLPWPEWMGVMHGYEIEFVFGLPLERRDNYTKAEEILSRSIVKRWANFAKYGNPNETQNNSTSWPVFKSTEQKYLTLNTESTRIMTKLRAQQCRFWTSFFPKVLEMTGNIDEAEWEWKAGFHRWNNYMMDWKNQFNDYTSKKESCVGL
Chain of acetylcholinesterase (P22303 32-614, species assumed): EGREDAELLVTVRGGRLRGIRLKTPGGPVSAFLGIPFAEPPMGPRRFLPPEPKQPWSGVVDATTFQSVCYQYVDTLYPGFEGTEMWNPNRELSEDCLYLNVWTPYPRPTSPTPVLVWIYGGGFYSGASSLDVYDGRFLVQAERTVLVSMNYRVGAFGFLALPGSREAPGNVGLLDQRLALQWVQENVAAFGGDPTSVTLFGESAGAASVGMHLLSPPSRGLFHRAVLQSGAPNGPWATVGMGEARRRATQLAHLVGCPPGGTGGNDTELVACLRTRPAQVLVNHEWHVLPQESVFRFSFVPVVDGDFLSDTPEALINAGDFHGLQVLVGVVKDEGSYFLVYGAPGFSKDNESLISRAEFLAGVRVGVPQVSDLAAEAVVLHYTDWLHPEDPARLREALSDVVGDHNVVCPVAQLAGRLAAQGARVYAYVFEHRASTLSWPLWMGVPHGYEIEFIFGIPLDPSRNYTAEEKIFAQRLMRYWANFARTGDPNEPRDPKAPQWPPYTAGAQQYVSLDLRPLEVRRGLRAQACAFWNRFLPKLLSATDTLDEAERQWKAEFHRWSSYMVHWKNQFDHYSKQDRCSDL

| SMILES | CUPRAC, copper reducing antioxidant power [3] | DPPH radical scavenging capacity (SC50) [4] [mg/mL] | MIC [5, 16] [µg/mL] | IC50 (acetylcholinesterase) [µM] | FRAP, the iron reducing antioxidant power [6] [μg/mL trolox/gram DW] | MIC [7] [µg/mL] | MIC [8] [µg/mL] | IC50 (butyrylcholinesterase) [µM] | MIC [10, 17] [µg/mL] | α-Glucosidase IC50 (α-glucosidase) [µg/mL] | MIC [11, 18] [µg/mL] | MIC [9, 19] [µg/mL] | MIC [13, 20] [µg/mL] | MIC (Bacillus cereus Roma709; [21]) [µg/mL] | MIC [12, 22] [µg/mL] | MIC Ms [7] [µg/mL] | also measured |
| --- | --- | --- | --- | --- | --- | --- | --- | --- | --- | --- | --- | --- | --- | --- | --- | --- | --- |
| N.N.[Cl][Pt][Cl] [Cisplatin, reference compound] | – | – | – | – | – | – | – | – | – | – | – | – | – | – | – | – | GI50 HeLa cell line ([1]; MTT, 24 h incubation): 1.13 µg/mL; IC50 HeLa cell line ([1]; MTT, 24 h incubation): 42.76 µg/mL; GI50 RPE normal cell line ([2]; MTT, 24 h incubation): 1.56 µg/mL; IC50 RPE normal cell line ([2]; MTT, 24 h incubation): 58.77 µg/mL |
| O=C(c1ccc(O)cc1)C(O)c1ccccc1 (centres unmarked) [Compound 2, 2-Hydroxy-1-(4-hydroxyphenyl)-2-phenylethanone] | 140.00 ± 11.5 μg/mL trolox/gram DW | 13.78 ± 1.3 | 516 (≈ 2260 µM) | 1070 | 1881 ± 75.5 | 129 (≈ 565 µM) | 1030 (≈ 4520 µM) | 323 | 2060 (≈ 9050 µM) | 547.97 | 1030 (≈ 4520 µM) | – | – | – | – | – | MIC ([9]; ATCC25922, read-out: MIC Ec): 1030 µg/mL (≈ 4520 µM); MIC (Bacillus cereus Roma709; ROMA709, read-out: MIC Bc): 1030 µg/mL (≈ 4520 µM); MIC ([12]; ATCC25923, read-out: MIC Sa): 1030 µg/mL (≈ 4520 µM) |
| O=C(c1cc(O)cc(O)c1)C(O)c1ccccc1 (centres unmarked) [Compound 3, 2-Hydroxy-1-(3,5-dihydroxyphenyl)-2-phenylethanone] | 90.00 ± 6.8 μg/mL trolox/gram DW | 8.72 ± 0.26 | 414 (≈ 1700 µM) | 1630 | 1111 ± 47.9 | 103 (≈ 422 µM) | 1660 (≈ 6780 µM) | 592 | 207 (≈ 848 µM) | 812.10 | 414 (≈ 1700 µM) | 820 (≈ 3360 µM) | 820 (≈ 3360 µM) | – | – | – | MIC (Bacillus cereus Roma709; ROMA709, read-out: MIC Bc): 207 µg/mL (≈ 848 µM); MIC ([12]; ATCC25923, read-out: MIC Sa): 207 µg/mL (≈ 848 µM) |
| O=C(c1cccc(O)c1)C(O)c1cccc(O)c1 (centres unmarked) [Compound 4, 1,2-Bis(3-hydroxyphenyl)-2-hydroxyethanone] | 398.33 ± 22.1 μg/mL trolox/gram DW | 8.16 ± 0.3 | 1280 (≈ 5240 µM) | 454 | 1534 ± 75.0 | 160 (≈ 655 µM) | 640 (≈ 2620 µM) | 462 | 320 (≈ 1310 µM) | >1000 | – | 320 (≈ 1310 µM) | – | 160 (≈ 655 µM) | 640 (≈ 2620 µM) | – | GI50 [1]: 1.12 µg/mL (≈ 4.59 µM); IC50 [1]: 42.7 µg/mL (≈ 175 µM); GI50 [2]: 1.15 µg/mL (≈ 4.71 µM); IC50 [2]: 30.3 µg/mL (≈ 124 µM) |
| O=C(c1ccc(O)cc1)C(O)c1cccc(O)c1 (centres unmarked) [Compound 5, 2-Hydroxy-2-(3-hydroxyphenyl)-1-(4-hydroxyphenyl)ethanone] | 1113.33±64 μg/mL trolox/gram DW and 1113.33 ± 64.9 μg/mL trolox/gram DW | 8.12 ± 1.2 | – | 3230 | 2090 ± 101.4 | 48 (≈ 197 µM) | 775 (≈ 3170 µM) | > 4090 | 96 (≈ 393 µM) | >1000 | 48 (≈ 197 µM) | 387 (≈ 1580 µM) | 1550 (≈ 6350 µM) | 48 (≈ 197 µM) | 96 (≈ 393 µM) | – | – |
| O=C(C(=O)c1cccc(O)c1)c1ccccc1 [Compound 8, 1-(3-Hydroxyphenyl)-2-phenylethane-1,2-dione] | 1095.00 ± 18.1 μg/mL trolox/gram DW | 13.56 ± 1.2 | 41 (≈ 181 µM) | > 4420 | 1678 ± 64.6 | 9 to 18 (≈ 39.8 to 79.6 µM) | 167 (≈ 738 µM) | > 4420 | 11 (≈ 48.6 µM) | >1000 | 21 (≈ 92.8 µM) | – | 21 (≈ 92.8 µM) | 11 (≈ 48.6 µM) | 11 (≈ 48.6 µM) | 11 (≈ 48.6 µM) | MIC ([9]; ATCC25922, read-out: MIC Ec): 167 µg/mL (≈ 738 µM) |
| O=C(C(=O)c1cccc(O)c1)c1cccc(O)c1 [Compound 11, 1,2-Bis(3-hydroxyphenyl)ethane-1,2-dione] | 175.00 ± 3.5 μg/mL trolox/gram DW | 10.03 ± 0.8 | 36 (≈ 149 µM) | 257 | 1340 ± 37.9 | 9 to 18 (≈ 37.2 to 74.3 µM) | 145 (≈ 599 µM) | 1400 | 18 (≈ 74.3 µM) | 66.700 | 18 (≈ 74.3 µM) | 36 (≈ 149 µM) | – | 18 (≈ 74.3 µM) | 9 (≈ 37.2 µM) | 9 (≈ 37.2 µM) | – |
| O=C(C(=O)c1cccc(O)c1)c1ccc(O)cc1 [Compound 12, 1-(4-Hydroxyphenyl)-2-(3-hydroxyphenyl)ethane-1,2-dione] | 155.00 ± 1.0 μg/mL trolox/gram DW | 12.87 ± 0.9 | 18 (≈ 74.3 µM) | 2070 | 1555 ± 34.1 | 9 to 18 (≈ 37.2 to 74.3 µM) | 38 (≈ 157 µM) | 1910 | 75 (≈ 310 µM) | 54.69 | – | 75 (≈ 310 µM) | 18 (≈ 74.3 µM) | 75 (≈ 310 µM) | 38 (≈ 157 µM) | 18 (≈ 74.3 µM) | GI50 [1]: 2.04 µg/mL (≈ 8.42 µM); IC50 [1]: 85.2 µg/mL (≈ 352 µM); GI50 [2]: 1.92 µg/mL (≈ 7.93 µM); IC50 [2]: 105 µg/mL (≈ 434 µM) |
| O=C(C(=O)c1cc(O)cc(O)c1)c1cccc(O)c1 [Compound 13, 1-(3,5-Dihydroxyphenyl)-2-(3-hydroxyphenyl)ethane-1,2-dione] | – | 9.42 ± 0.8 | – | > 3870 | 1844 ± 56.2 | 9 to 18 (≈ 34.9 to 69.7 µM) | 167 (≈ 647 µM) | > 3870 | – | >1000 | – | – | – | 11 (≈ 42.6 µM) | 11 (≈ 42.6 µM) | 11 (≈ 42.6 µM) | MIC ([5]; ATCC60193, 48 h): 41 µg/mL (≈ 159 µM); MIC ([9]; ATCC25922, read-out: MIC Ec): 167 µg/mL (≈ 647 µM); MIC ([13]; ATCC29212, read-out: MIC Ef): 21 µg/mL (≈ 81.3 µM); MIC ([10]; ATCC27853, read-out: MIC Pa): 11 µg/mL (≈ 42.6 µM); MIC ([11]; RSKK07038, 72 h): 21 µg/mL (≈ 81.3 µM) |
| O=C(C(=O)c1cccc(OC2O[C@H](CO)[C@@H](O)[C@H](O)[C@H]2O)c1)c1ccccc1 (stereo partly drawn) [Compound 21, 1-(3-O-β -D-Glucopyranosylphenyl)-2-phenylethane-1,2-dione] | 109.94 ± 19.42 μg/mL trolox/gram DW | 36.94 ± 1.71 | – | > 2570 | 1981.25 ± 28.33 | – | – | > 2570 | – | >1000 | – | – | – | – | – | – | MIC [14]: 12 to 27 µg/mL (≈ 30.9 to 69.5 µM); MIC [15]: 12 to 27 µg/mL (≈ 30.9 to 69.5 µM) |
| O=C(C(=O)c1ccc(OC2O[C@H](CO)[C@@H](O)[C@H](O)[C@H]2O)cc1)c1ccccc1 (stereo partly drawn) [Compound 22, 1-(4-O-β -D-Glucopyranosylphenyl)-2-phenylethane-1,2-dione] | 248.97 ± 34.06 μg/mL trolox/gram DW | 47.54 ± 1.05 | – | 342 | 1845.42 ± 41.36 | – | – | 1360 | – | 212.24 | – | – | – | – | – | – | MIC [14]: 12 to 27 µg/mL (≈ 30.9 to 69.5 µM); MIC [15]: 12 to 27 µg/mL (≈ 30.9 to 69.5 µM) |
| O=C(C(=O)c1cccc(OC2O[C@H](CO)[C@@H](O)[C@H](O)[C@H]2O)c1)c1ccc(O)cc1 (stereo partly drawn) [Compound 25, 1-(3-O-β -D-Glucopyranosylphenyl)-2-(4-hydroxyphenyl)ethane-1,2-dione] | 147.54 ± 25.04 μg/mL trolox/gram DW | 26.33 ± 0.39 | – | 562 | 2570.42 ± 25.01 | 8 to 15 (≈ 19.8 to 37.1 µM) | – | 331 | – | >1000 | – | 8 to 15 (≈ 19.8 to 37.1 µM) | – | – | – | – | MIC [15]: 8 to 15 µg/mL (≈ 19.8 to 37.1 µM); GI50 [1]: 2.21 µg/mL (≈ 5.47 µM); IC50 [1]: 81.5 µg/mL (≈ 202 µM); GI50 [2]: 3.38 µg/mL (≈ 8.36 µM); IC50 [2]: 102 µg/mL (≈ 252 µM) |
